Ends that are not written are not given here.
Key:
[1] = system: neuro-2a cells; assay: Confocal microscopy imaging of neuronal cells (neurite outgrowth, qualitative); type: cell-based, Mouse; conditions: for number of projections (increase from no treatment): confocal images, FIG. 7
Protocol: (§1) Once the three compounds were synthesized the neurite outgrowth assay was used in order to determine the effectiveness of the aza-proline derivatives in comparison with the Glyx-13. Mouse neuroblastoma cells (Neuro-2a cells) were used in order to measure the increase in neurite growth between untreated cells and those treated with the test compounds. A plate reader assay was used where 9,000 cells/cm^2 were treated with the compounds at 0.01, 0.10, and 1.00 μM concentrations for 48 hours. Several controls were used as well, including wells with no cell and compound, cells with no compound (just water), and wells with no cells and water. After treatment with the compounds, the cells were washed in DPBS buffer and treated with cell viability indicator and a membrane stain for 20 minutes before being washed again and treated with a background suppression dye. The plate reader assay was inconclusive for some of the concentrations of the compounds, but the 0.10 μM data is promising. (FIG. 6)

[2] = system: Mouse neuroblastoma cells (Neuro-2a cells); type: cell-based; conditions: 0.10 μM, 48 hours, vs untreated cells; FIG. 6; preliminary data
Protocol: as §1

| Molecule | number of projections (increase from no treatment) [1] | effectiveness compared with control compound Glyx-13 (neuronal projections and dendrite length) ([1]; confocal microscope data) | size of the neurites (membrane stain) [2] |
| --- | --- | --- | --- |
| C[C@@H](O)[C@H](N)C(=O)N1CCC[C@H]1C(=O)N1CCCN1C(=O)N[C@H](C(N)=O)[C@@H](C)O [Glyx-2] | even more noticeable | significantly more effective | significant increase |
| C[C@@H](O)[C@H](N)C(=O)N1CCCN1C(=O)N1CCC[C@H]1C(=O)N[C@H](C(N)=O)[C@@H](C)O [Glyx-1] | even more noticeable |  |  |
| Thr-Pro-Pro-Thr-NH2 (TPPT-NH2) [Glyx-13, tetrapeptide, parent and control compound, NMDA receptor glycine-site partial agonist, reference compound] | significant increase |  |  |

— patent publication US10591461B2, “Method of drug design and optimisation utilizing stereochemical mimicry” (The Trustees of the University of Pennsylvania, priority 2016, dated 2020)
